Laboratory results: patent EP0906913A1, “Pteridinderivatives as NO synthase inhibitors” (Werner, Ernst, priority 1997, dated 1999)

Legend:
[1] = molecular target: T1, rekombinante, neuronale, Tetrahydrobiopterin-freie NO-Synthase (Rattus norvegicus, UniProt P29476); experiment: Inhibition of recombinant neuronal tetrahydrobiopterin-free NO synthase ([3H]citrulline formation from [3H]arginine); format: biochemical; settings: for NO-Synthase -Aktivität / inhibition at 0.01 µM / inhibition at 0.1 µM / inhibition at 1 µM / inhibition at 10 µM / inhibition at 100 µM / inhibition at 1000 µM: 10 µM Tetrahydrobiopterin, 10 min, 37°C; for inhibition at 0.01 µM / inhibition at 0.1 µM / inhibition at 1 µM / inhibition at 10 µM / inhibition at 100 µM / inhibition at 1000 µM: read-out: Hemmung
T1 construct: made in house
Experimental: Zum Nachweis der Wirkung der Hemmstoffe eignet sich z.B. rekombinante, neuronale, Tetrahydrobiopterin-freie NO-Synthase, welche nach der Methode von List et al. 1996 (Ref. 7) hergestellt wird. Die NO-Synthaseaktivität wird dabei in Abhängigkeit von der Zugabe des NO-Synthase-Hemmstoffes durch die Bildung von [2,3,4,5-^3H]Citrullin aus [2,3,4,5-^3H]Arginin nach der Methode von Mayer et al. (Ref. 8) bestimmt. Dazu wird in 0.1 ml folgendes Gemisch für 10 min bei 37°C inkubiert: 0.1 µg NO-Synthase, 0.1mM [2,3,4,5-^3H]-L-Arginin (ca. 60000 cpm), 0.5 mM CaCl2, 10 µg/ml Calmodulin, 0.2 mM NADPH (Nicotinamidadenindinukleotid, reduzierte Form), 10 µM Tetrahydrobiopterin, 0-1000 µM NO-Synthase-Inhibitor (z.B. H2aminobiopterin), 5 µM FAD (Flavinadenindinucleutid), 5 µM FMN (Flavinmononucleotid), und 0.2 mM CHAPS (3-[(3-cholamidopropyl)dimethyl-amonio]-1-propansulfonat). Die Reaktion wird durch Zugabe von 0.9 ml 20 mM Natriumacetatpuffer, pH = 5,5, der 1 mM L-Citrullin enthält, gestoppt. Das Gemisch wird anschließend auf Ionenaustauschersäulen, die mit dem Material DOWEX AG50W-X8 gefüllt sind, aufgetragen, und das Eluat sowie die Waschflüssigkeit (1 ml Wasser) werden aufgefangen. 7 ml Scintillationscocktail werden zugegeben und die Radioaktivität, die ein Maß für die NO-Synthaseaktivität ist, wird mit einem Szintillationszähler bestimmt. Tabelle I

[2] = tested on: kultivierten, cytokin-stimulierten Mausfibroblasten; experiment: Nitrite in supernatant of cultured cytokine-stimulated mouse fibroblasts (Griess reaction); format: cell-based, Maus; settings: for inhibition at 2.5 µM / inhibition at 10 µM / inhibition at 25 µM / inhibition at 100 µM / inhibition at 250 µM: Fibroblast, read-out: Hemmung; for inhibition at 2.5 µM / inhibition at 10 µM / inhibition at 25 µM / inhibition at 100 µM / inhibition at 250 µM / Nitrit im Überstand: 96 h, Interferon-gamma, TNF-alpha, LPS stimulated
Experimental: Zum Nachweis der Wirksamkeit einer Verbindung der vorliegenden Erfindung an kultivierten Zellen wurden Mausfibroblasten nach Werner-Felmayer et al., (Ref. 9) gewonnen und in RPMI 1640 Medium (Schoeller Pharma, Wien, Österreich) mit 20% Hitze-inaktiviertem fötalem Kälberserum (Schoeller Pharma) in einer Dichte von 10^5 Zellen pro ml ausgesät und mit 50 U/ml Mäuse-Interferongamma, 100 U/ml Tumornekrose Faktor-Alpha und 1 µg/ml Lipopolysaccharid (E. coli B55:05) in Gegenwart verschiedener Konzentrationen von Hemmstoffen kultiviert. Nach 96 h im Brutschrank (100% Luftfeuchtigkeit, 37°C, 5% CO2) werden die Überstände gesammelt und mit der Griess-Reaktion auf ihren Gehalt an Nitrit, einem Abbauprodukt von NO, analysiert. Die folgende Tabelle 2 zeigt einen Vergleich von H2aminobiopterin (R1 = R3 = H, R2 = R4 = OH, R5 = CH3), H4aminobiopterin und Beispiel 72 aus DE 4418097: Tabelle 2

NO-Synthase -Aktivität ([1]; inhibitor 0.01 µM) [nmol/mg/min]	inhibition at 0.01 µM ([1]; inhibitor 0.01 µM) [%]	NO-Synthase -Aktivität ([1]; inhibitor 0.1 µM) [nmol/mg/min]	inhibition at 0.1 µM ([1]; inhibitor 0.1 µM) [%]	NO-Synthase -Aktivität ([1]; inhibitor 1.0 µM) [nmol/mg/min]	inhibition at 1 µM ([1]; inhibitor 1.0 µM) [%]	NO-Synthase -Aktivität ([1]; inhibitor 10. µM) [nmol/mg/min]	inhibition at 10 µM ([1]; inhibitor 10. µM) [%]	NO-Synthase -Aktivität ([1]; inhibitor 100. µM) [nmol/mg/min]	inhibition at 100 µM ([1]; inhibitor 100. µM) [%]	NO-Synthase -Aktivität ([1]; inhibitor 1000. µM) [nmol/mg/min]	inhibition at 1000 µM ([1]; inhibitor 1000. µM) [%]	Compound	inhibition at 2.5 µM ([2]; inhibitor 2.5 µM) [%]	inhibition at 10 µM ([2]; inhibitor 10 µM) [%]	inhibition at 25 µM ([2]; inhibitor 25 µM) [%]	inhibition at 100 µM ([2]; inhibitor 100 µM) [%]	inhibition at 250 µM ([2]; inhibitor 250 µM) [%]	Nitrit im Überstand ([2]; inhibitor 2.5 µM) [µM]	Nitrit im Überstand ([2]; inhibitor 10 µM) [µM]	Nitrit im Überstand ([2]; inhibitor 25 µM) [µM]	also measured
294	0.3	283	4	242	18	110	64	48	83	25	92	C[C@H](O)[C@H](O)C1=Nc2c(N)nc(N)nc2NC1 [H2aminobiopterin, 2,4-diamino-7,8-dihydro-6(L-erythro-1,2-dihydroxylpropyl) pteridin]	35	78	99	100	100	6.2	2.1	0.1	Hemmung des Enzyms (Vergleich) ([1]; in words, compared with 6R-H4aminobiopterin): in der gleichen Größenordnung; Wirksamkeit am Enzym (Vergleich) ([1]; in words, compared with Beispiel 72 of DE 4418097): wesentlich wirksamer; Wirksamkeit an kultivierten Zellen (Vergleich) ([2]; in words, compared with previously known pteridine derivatives): deutlich wirksamer; Nitrit im Überstand ([2]; inhibitor 100 µM): 0.0 µM; Nitrit im Überstand ([2]; inhibitor 250 µM): 0.0 µM
279	6	262	12	181	39	72	76	35	88	24	92	C[C@H](O)[C@H](O)[C@H]1CNc2nc(N)nc(N)c2N1 [H4aminobiopterin, 2,4-Diamino-5,6,7,8-tetrahydro-6R-(L-erythro-1,2 dihydroxypropyl)pteridin, reference compound]	7	36	62	96	99	9.3	6.4	3.8	Nitrit im Überstand ([2]; inhibitor 100 µM): 0.4 µM; Nitrit im Überstand ([2]; inhibitor 250 µM): 0.02 µM
